# Results published in ChEMBL document CHEMBL1255496, “Pharmacokinetic-pharmacodynamic-model-guided doripenem dosing in critically ill patients” (2010).
# How the values were obtained:
# Format in all cases: functional
# Burkholderia cepacia = assay: Antimicrobial activity against Burkholderia cepacia clinical isolates
# Haemophilus sp. = assay: Antimicrobial activity against Haemophilus sp. clinical isolates
# Staphylococcus sp. [1] = assay: Antimicrobial activity against Staphylococcus sp. clinical isolates
# Citrobacter freundii = assay: Antimicrobial activity against Citrobacter freundii clinical isolates
# Klebsiella oxytoca = assay: Antimicrobial activity against Klebsiella oxytoca clinical isolates
# Enterococcus faecalis [2] = assay: Antimicrobial activity against Enterococcus faecalis clinical isolate obtained from critically ill patients
# Staphylococcus sp. [3] = assay: Antimicrobial activity against Coagulase-negative Staphylococcus sp. clinical isolates
# Serratia marcescens = assay: Antimicrobial activity against Serratia marcescens clinical isolates
# Enterobacter cloacae [4] = assay: Antimicrobial activity against Enterobacter cloacae clinical isolate obtained from critically ill patients
# Staphylococcus sp. [5] = assay: Antimicrobial activity against Coagulase-negative oxacillin-susceptible Staphylococcus sp. clinical isolates
# Enterobacter cloacae [6] = assay: Antimicrobial activity against Enterobacter cloacae clinical isolates
# Klebsiella pneumoniae [7] = assay: Antimicrobial activity against Klebsiella pneumoniae clinical isolate obtained from critically ill patients
# Staphylococcus aureus [8] = assay: Antimicrobial activity against methicillin-susceptible Staphylococcus aureus clinical isolate obtained from critically ill patients
# Enterococcus faecalis [9] = assay: Antimicrobial activity against Enterococcus faecalis clinical isolates
# Enterobacteriaceae = assay: Antimicrobial activity against Enterobacteriaceae clinical isolates
# Haemophilus influenzae = assay: Antimicrobial activity against Haemophilus influenzae clinical isolate obtained from critically ill patients
# [10] = T>MIC in bacilli infected patients with severe renal impairment at 250 mg administered as 4 hrs infusion every 12 hrs
# Pseudomonas aeruginosa [11] = assay: Antimicrobial activity against Pseudomonas aeruginosa clinical isolates
# Enterococcus sp. = assay: Antimicrobial activity against Enterococcus sp. clinical isolates
# Streptococcus pneumoniae [12] = assay: Antimicrobial activity against Streptococcus pneumoniae clinical isolates
# Acinetobacter sp. [13] = assay: Antimicrobial activity against Acinetobacter sp. clinical isolate obtained from critically ill patients
# [14] = T>MIC in bacilli infected patients with renal impairment at 500 mg administered as 1 hr infusion every 8 hrs
# Klebsiella aerogenes = assay: Antimicrobial activity against Enterobacter aerogenes clinical isolates
# Escherichia coli [15] = assay: Antimicrobial activity against Escherichia coli clinical isolates
# Proteus mirabilis [16] = assay: Antimicrobial activity against Proteus mirabilis clinical isolates
# Staphylococcus aureus [17] = assay: Antimicrobial activity against oxacillin-susceptible Staphylococcus aureus clinical isolates
# [18] = T>MIC in bacilli infected patients with moderate renal impairment at 250 mg administered as 1 hr infusion every 8 hrs
# [19] = tested on: Stenotrophomonas maltophilia; assay: Antimicrobial activity against Stenotrophomonas maltophilia clinical isolates
# Escherichia coli [20] = assay: Antimicrobial activity against Escherichia coli clinical isolate obtained from critically ill patients
# Proteus mirabilis [21] = assay: Antimicrobial activity against Proteus mirabilis clinical isolate obtained from critically ill patients
# Streptococcus pneumoniae [22] = assay: Antimicrobial activity against Streptococcus pneumoniae clinical isolate obtained from critically ill patients
# Staphylococcus aureus [23] = assay: Antimicrobial activity against Staphylococcus aureus clinical isolates
# Klebsiella pneumoniae [24] = assay: Antimicrobial activity against Klebsiella pneumoniae clinical isolates
# Pseudomonas aeruginosa [25] = assay: Antimicrobial activity against Pseudomonas aeruginosa clinical isolate obtained from critically ill patients
# Citrobacter koseri = assay: Antimicrobial activity against Citrobacter koseri clinical isolates
# Staphylococcus aureus [26] = assay: Antimicrobial activity against methicillin-resistant Staphylococcus aureus clinical isolate obtained from critically ill patients
# Morganella morganii = assay: Antimicrobial activity against Morganella morganii clinical isolates
# Streptococcus sp. = assay: Antimicrobial activity against Streptococcus sp. clinical isolates
# Acinetobacter sp. [27] = assay: Antimicrobial activity against Acinetobacter sp. clinical isolates
# Acinetobacter baumannii = assay: Antimicrobial activity against Acinetobacter baumannii clinical isolates
smiles,measurement,setting,value
C[C@@H](O)[C@H]1C(=O)N2C(C(=O)O)=C(S[C@@H]3CN[C@H](CNS(N)(=O)=O)C3)[C@H](C)[C@H]12 [DORIPENEM],MIC,Burkholderia cepacia,2 µg/mL
same,MIC50,Haemophilus sp.,0.06 µg/mL
same,MIC90,Haemophilus sp.,0.25 µg/mL
same,MIC50,Staphylococcus sp. [1],≤ 0.03 µg/mL
same,MIC90,Staphylococcus sp. [1],16 µg/mL
same,MIC,Citrobacter freundii,≤ 0.03 µg/mL
same,MIC50,Citrobacter freundii,≤ 0.03 µg/mL
same,MIC90,Citrobacter freundii,0.06 µg/mL
same,MIC50,Klebsiella oxytoca,0.06 µg/mL
same,MIC90,Klebsiella oxytoca,0.06 µg/mL
same,MIC50,Enterococcus faecalis [2],4 µg/mL
same,MIC90,Enterococcus faecalis [2],4 µg/mL
same,MIC50,Staphylococcus sp. [3],0.06 µg/mL
same,MIC90,Staphylococcus sp. [3],16 µg/mL
same,MIC50,Serratia marcescens,0.12 µg/mL
same,MIC90,Serratia marcescens,0.25 µg/mL
same,MIC50,Enterobacter cloacae [4],0.06 µg/mL
same,MIC90,Enterobacter cloacae [4],0.12 µg/mL
same,MIC,Staphylococcus sp. [5],≤ 0.03 µg/mL
same,MIC50,Staphylococcus sp. [5],≤ 0.03 µg/mL
same,MIC90,Staphylococcus sp. [5],0.25 µg/mL
same,MIC50,Enterobacter cloacae [6],0.06 µg/mL
same,MIC90,Enterobacter cloacae [6],0.5 µg/mL
same,MIC50,Klebsiella pneumoniae [7],0.06 µg/mL
same,MIC90,Klebsiella pneumoniae [7],0.25 µg/mL
same,MIC50,Staphylococcus aureus [8],0.03 µg/mL
same,MIC90,Staphylococcus aureus [8],0.06 µg/mL
same,MIC50,Enterococcus faecalis [9],4 µg/mL
same,MIC90,Enterococcus faecalis [9],4 µg/mL
same,MIC,Enterobacteriaceae,≤ 0.03 µg/mL
same,MIC50,Enterobacteriaceae,≤ 0.03 µg/mL
same,MIC90,Enterobacteriaceae,0.12 µg/mL
same,MIC50,Haemophilus influenzae,0.12 µg/mL
same,MIC90,Haemophilus influenzae,0.5 µg/mL
same,fT>MIC,[10],35%
same,MIC50,Pseudomonas aeruginosa [11],0.5 µg/mL
same,MIC90,Pseudomonas aeruginosa [11],4 µg/mL
same,MIC50,Enterococcus sp.,4 µg/mL
same,MIC90,Enterococcus sp.,32 µg/mL
same,MIC,Streptococcus pneumoniae [12],≤ 0.03 µg/mL
same,MIC50,Streptococcus pneumoniae [12],≤ 0.03 µg/mL
same,MIC90,Streptococcus pneumoniae [12],0.5 µg/mL
same,MIC50,Acinetobacter sp. [13],16 µg/mL
same,MIC90,Acinetobacter sp. [13],> 32 µg/mL
same,fT>MIC,[14],35%
same,MIC50,Klebsiella aerogenes,0.06 µg/mL
same,MIC90,Klebsiella aerogenes,0.12 µg/mL
same,MIC,Escherichia coli [15],≤ 0.03 µg/mL
same,MIC50,Escherichia coli [15],≤ 0.03 µg/mL
same,MIC90,Escherichia coli [15],0.03 µg/mL
same,MIC50,Proteus mirabilis [16],0.25 µg/mL
same,MIC90,Proteus mirabilis [16],0.5 µg/mL
same,MIC,Staphylococcus aureus [17],≤ 0.03 µg/mL
same,MIC50,Staphylococcus aureus [17],≤ 0.03 µg/mL
same,MIC90,Staphylococcus aureus [17],0.06 µg/mL
same,fT>MIC,[18],35%
same,MIC50,[19],64 µg/mL
same,MIC90,[19],> 128 µg/mL
same,MIC50,Escherichia coli [20],0.03 µg/mL
same,MIC90,Escherichia coli [20],0.06 µg/mL
same,MIC50,Proteus mirabilis [21],0.25 µg/mL
same,MIC90,Proteus mirabilis [21],1 µg/mL
same,MIC,Streptococcus pneumoniae [22],≤ 0.015 µg/mL
same,MIC50,Streptococcus pneumoniae [22],≤ 0.015 µg/mL
same,MIC90,Streptococcus pneumoniae [22],0.5 µg/mL
same,MIC50,Staphylococcus aureus [23],≤ 0.03 µg/mL
same,MIC90,Staphylococcus aureus [23],16 µg/mL
same,MIC50,Klebsiella pneumoniae [24],0.06 µg/mL
same,MIC90,Klebsiella pneumoniae [24],0.12 µg/mL
same,MIC50,Pseudomonas aeruginosa [25],0.5 µg/mL
same,MIC90,Pseudomonas aeruginosa [25],8 µg/mL
same,MIC,Citrobacter koseri,≤ 0.03 µg/mL
same,MIC50,Citrobacter koseri,≤ 0.03 µg/mL
same,MIC90,Citrobacter koseri,0.06 µg/mL
same,MIC50,Staphylococcus aureus [26],1 µg/mL
same,MIC90,Staphylococcus aureus [26],16 µg/mL
same,MIC50,Morganella morganii,0.25 µg/mL
same,MIC90,Morganella morganii,1 µg/mL
same,MIC,Streptococcus sp.,≤ 0.03 µg/mL
same,MIC50,Streptococcus sp.,≤ 0.03 µg/mL
same,MIC90,Streptococcus sp.,0.06 µg/mL
same,MIC50,Acinetobacter sp. [27],0.5 µg/mL
same,MIC90,Acinetobacter sp. [27],32 µg/mL
same,MIC50,Acinetobacter baumannii,1 µg/mL
same,MIC90,Acinetobacter baumannii,32 µg/mL
